Experimental data published in patent publication US20250312323A1 (Cavion, Inc., priority 2018, published 2025).

What was measured:
[1] = system: patients with essential tremor; assay: T-CALM: TETRAS total score; format: in vivo, human
Description: The Total TETRAS score was defined as the sum of the TETRAS performance subscale total score and the TETRAS ADL subscale score. TETRAS TOTAL score combines both patient reported outcome and objective measurement of tremor amplitude in a single score. Analyses of the TETRAS-ADL was conducted using the same type of ANCOVA model as described for the TETRAS-PS, using two-sided tests at the alpha=0.05 level of significance (FIG. 3 and Table 3).
(§1) Both sets of scores were statistically analyzed.

EEG alpha power = assay: Human pharmaco-EEG alpha power (Study PN001/Part II); format: in vivo; settings: at plasma concentrations greater than 200 to 300 nM (4 mg BID)
Description: FIG. 91 contains a graph showing the analysis of awake EEG absolute power for Alpha band (Electrode site Oz, eyes closed condition) (Study PN001/Part II).
FIG. 92 contains a graph showing the pharmacokinetic/pharmacodynamic analysis of EEG Alpha power (Study PN001/Part 1). BID=twice daily; EEG=electroencephalogram; MK=CX-8998; PBO=placebo; PD=pharmacodynamic.

Solubility of CX-8998 = format: physicochemical; settings: at higher pH values
Description: Sustained release (SR) beads were developed with multiple types of sustained release and enteric coatings. Some SR matrix beads were developed using typical polymers (e.g., hydroxypropyl methylcellulose or carbopol) to achieve sustained release. Some SR matrix beads were developed using pH independent sustained release osmotic pumps to achieve zero order release from the tablet. […] Some SR matrix beads were developed using Eudragit RS/RL30D coating of IR beads to achieve an approach that depends on slow erosion of coating thereby sustaining the release of the drug from an IR matrix.

[2] = system: patients with essential tremor; assay: T-CALM: QUEST questionnaire, items on anti-tremor medication; format: in vivo, human
[3] = system: patients with essential tremor; assay: T-CALM: TETRAS activities of daily living subscale; format: in vivo, human; settings: for TETRAS-ADL Score change from baseline, Median (minimum, maximum): Day 15, post-hoc
Description: The sum of the individual scores provides the overall score, ranging from 0 to 48. The complete TETRAS ADL Subscale is as follows.
Analyses of the TETRAS-ADL was conducted using the same type of ANCOVA model as described for the TETRAS-PS, using two-sided tests at the alpha=0.05 level of significance (FIG. 2 and Table 2).
as §1

[4] = system: patients with essential tremor; assay: T-CALM: Patient Global Impression of Change (PGIC); format: in vivo, human; settings: for PGIC score (rescaled −3 to 3), LS mean (SE): ANCOVA
Description: Treatment success as measured by PGIC was summarized using descriptive statistics.
The Patient Global Impression of Change (PGIC) will quantify a patient's impression of improvement or decline over time with respect to ET treatment (see, e.g., Guy, Assessment Mantal for Psychopharmacology. Rockville, MD: Department of Health, Education, and Welfare Public Health Service Alcohol, Drug Abuse, and Mental Health Administration, 1976). The patient will use the PGIC scale to assess current health status versus initiation of treatment and calculate the difference.

[5] = system: patients with essential tremor; assay: T-CALM: PK/PD, Cmin exposure vs change in TETRAS-PS (Hill equation); format: in vivo, human; settings: steady state, estimated
Description: Evaluation of the relationship between the Cmin exposure level of CX-8998 and response (E) as measured by change from baseline in TETRAS-PS using the Hill Equation: […]
Pharmacodynamic variables (Response) evaluated included change from baseline in TETRAS performance subscale, TETRAS activities of daily living, TETRAS total score.

[6] = Day 15, change from baseline, N = 39
[7] = Day 28, change from baseline, N = 37

Q: What does the source list for CC(C)c1ccc(CC(=O)N[C@H](C)c2ccc(OCC(F)(F)F)cn2)cc1 [CX-8998]?
A: Subjects with improvement of at least 5 points by TETRAS Total score, number ([1]; Day 15, N 39): 22; TETRAS Total Score, subjects with 0 change, n (%) [1, 6]: 1 (2.6%); TETRAS Total Score, subjects with >0 to 1 point improvement, n (%) [1, 6]: 2 (5.1%); TETRAS Total Score, subjects with >0 to 1 point worsening, n (%) [1, 6]: 2 (5.1%); TETRAS Total Score, subjects with >1 to 2.5 point improvement, n (%) [1, 6]: 2 (5.1%); TETRAS Total Score, subjects with >1 to 2.5 point worsening, n (%) [1, 6]: 1 (2.6%); TETRAS Total Score, subjects with >2.5 to 5 point improvement, n (%) [1, 6]: 7 (17.9%); TETRAS Total Score, subjects with >2.5 to 5 point worsening, n (%) [1, 6]: 4 (10.3%); TETRAS Total Score, subjects with >5 to 10 point improvement, n (%) [1, 6]: 6 (15.4%); TETRAS Total Score, subjects with >5 to 10 point worsening, n (%) [1, 6]: 0; TETRAS Total Score, subjects with >10 point worsening, n (%) [1, 6]: 0; TETRAS Total Score, subjects with >10 to 20 point improvement, n (%) [1, 6]: 12 (30.8%); TETRAS Total Score, subjects with >20 point improvement, n (%) [1, 6]: 2 (5.1%); total TETRAS score with TETRAS-PS rated by independent video raters, vs placebo ([1]; Day 15 or 28): not statistically significant; Subjects with improvement of at least 5 points by TETRAS Total score, number ([1]; Day 28, N 37): 21; TETRAS Total Score, subjects with 0 change, n (%) [1, 7]: 0; TETRAS Total Score, subjects with >0 to 1 point improvement, n (%) [1, 7]: 2 (5.4%); TETRAS Total Score, subjects with >0 to 1 point worsening, n (%) [1, 7]: 4 (10.8%); TETRAS Total Score, subjects with >1 to 2.5 point improvement, n (%) [1, 7]: 2 (5.4%); TETRAS Total Score, subjects with >1 to 2.5 point worsening, n (%) [1, 7]: 2 (5.4%); TETRAS Total Score, subjects with >2.5 to 5 point improvement, n (%) [1, 7]: 5 (13.5%); TETRAS Total Score, subjects with >2.5 to 5 point worsening, n (%) [1, 7]: 1 (2.7%); TETRAS Total Score, subjects with >5 to 10 point improvement, n (%) [1, 7]: 7 (18.9%); TETRAS Total Score, subjects with >5 to 10 point worsening, n (%) [1, 7]: 0; TETRAS Total Score, subjects with >10 point worsening, n (%) [1, 7]: 0; TETRAS Total Score, subjects with >10 to 20 point improvement, n (%) [1, 7]: 8 (21.6%); TETRAS Total Score, subjects with >20 point improvement, n (%) [1, 7]: 5 (13.5%); reduction of EEG alpha power (EEG alpha power): ≥ 25%; solubility (Solubility of CX-8998): poor solubility; QUEST: Side effect from tremor medication in past month? answer No, patients, number (%) ([2]; Day 15): 25 (64%); QUEST: Side effect from tremor medication in past month? answer Yes, patients, number (%) ([2]; Day 15): 14 (36%); QUEST: Side effect from tremor medication in past month? answer No, patients, number (%) ([2]; Day 28): 30 (77%); QUEST: Side effect from tremor medication in past month? answer Yes, patients, number (%) ([2]; Day 28): 7 (18%); Subjects with improvement of at least 5 points by TETRAS-ADL score, number ([3]; Day 15, N 39): 18; TETRAS-ADL Score, subjects with 0 change, n (%) [3, 6]: 2 (5.1%); TETRAS-ADL Score, subjects with >0 to 1 point improvement, n (%) [3, 6]: 5 (12.8%); TETRAS-ADL Score, subjects with >0 to 1 point worsening, n (%) [3, 6]: 1 (2.6%); TETRAS-ADL Score, subjects with >1 to 2.5 point improvement, n (%) [3, 6]: 2 (5.1%); TETRAS-ADL Score, subjects with >1 to 2.5 point worsening, n (%) [3, 6]: 3 (7.7%); TETRAS-ADL Score, subjects with >2.5 to 5 point improvement, n (%) [3, 6]: 7 (17.9%); TETRAS-ADL Score, subjects with >2.5 to 5 point worsening, n (%) [3, 6]: 3 (7.7%); TETRAS-ADL Score, subjects with >5 to 10 point improvement, n (%) [3, 6]: 11 (28.2%); TETRAS-ADL Score, subjects with >5 to 10 point worsening, n (%) [3, 6]: 0; TETRAS-ADL Score, subjects with >10 point improvement, n (%) [3, 6]: 5 (12.8%); TETRAS-ADL Score, subjects with >10 point worsening, n (%) [3, 6]: 0; TETRAS-ADL Score change from baseline, Median (minimum, maximum) ([3]; patients Minimally Improved by CGI-I): −2.0 (−11, 3); TETRAS-ADL Score change from baseline, Median (minimum, maximum) ([3]; patients Minimally Improved by PGIC): −4.0 (−13, 4); Subjects with improvement of at least 5 points by TETRAS-ADL score, number ([3]; Day 28, N 37): 11; TETRAS-ADL Score, subjects with 0 change, n (%) [3, 7]: 5 (13.5%); TETRAS-ADL Score, subjects with >0 to 1 point improvement, n (%) [3, 7]: 2 (5.4%); TETRAS-ADL Score, subjects with >0 to 1 point worsening, n (%) [3, 7]: 3 (8.1%); TETRAS-ADL Score, subjects with >1 to 2.5 point improvement, n (%) [3, 7]: 3 (8.1%); TETRAS-ADL Score, subjects with >1 to 2.5 point worsening, n (%) [3, 7]: 3 (8.1%); TETRAS-ADL Score, subjects with >2.5 to 5 point improvement, n (%) [3, 7]: 7 (18.9%); TETRAS-ADL Score, subjects with >2.5 to 5 point worsening, n (%) [3, 7]: 3 (8.1%); TETRAS-ADL Score, subjects with >5 to 10 point improvement, n (%) [3, 7]: 6 (16.2); TETRAS-ADL Score, subjects with >5 to 10 point worsening, n (%) [3, 7]: 0; TETRAS-ADL Score, subjects with >10 point improvement, n (%) [3, 7]: 5 (13.5%); TETRAS-ADL Score, subjects with >10 point worsening, n (%) [3, 7]: 0; PGIC Category 0 No change, patients, number (%) ([4]; Day 15): 11 (28%); PGIC Category 1 Minimally improved, patients, number (%) ([4]; Day 15): 17 (44%); PGIC Category 2 Much improved, patients, number (%) ([4]; Day 15): 8 (21%); PGIC Category 3 Very much improved, patients, number (%) ([4]; Day 15): 1 (3%); PGIC Category −1 Minimally worse, patients, number (%) ([4]; Day 15): 1 (3%); PGIC Category −2 Much worse, patients, number (%) ([4]; Day 15): 1 (3%); PGIC Category −3 Very much worse, patients, number (%) ([4]; Day 15): 0; mean PGIC score vs placebo ([4]; Day 15): significantly greater (improved); PGIC Score, subjects 0 - no change, n (%) ([4]; Day 15, N = 39): 11 (28%); PGIC Score, subjects 1 - minimally improved, n (%) ([4]; Day 15, N = 39): 17 (44%); PGIC Score, subjects 2 - much improved, n (%) ([4]; Day 15, N = 39): 8 (21%); PGIC Score, subjects 3 - very much improved, n (%) ([4]; Day 15, N = 39): 1 (3%); PGIC Score, subjects −1 - minimally worse, n (%) ([4]; Day 15, N = 39): 1 (3%); PGIC Score, subjects −2 - much worse, n (%) ([4]; Day 15, N = 39): 1 (3%); PGIC Score, subjects −3 - very much worse, n (%) ([4]; Day 15, N = 39): 0; PGIC score (rescaled −3 to 3), LS mean (SE) ([4]; Day 15): 0.9 (0.17); PGIC Category 0 No change, patients, number (%) ([4]; Day 28): 14 (36%); PGIC Category 1 Minimally improved, patients, number (%) ([4]; Day 28): 10 (26%); PGIC Category 2 Much improved, patients, number (%) ([4]; Day 28): 7 (18%); PGIC Category 3 Very much improved, patients, number (%) ([4]; Day 28): 3 (8%); PGIC Category −1 Minimally worse, patients, number (%) ([4]; Day 28): 1 (3%); PGIC Category −2 Much worse, patients, number (%) ([4]; Day 28): 1 (3%); PGIC Category −3 Very much worse, patients, number (%) ([4]; Day 28): 1 (3%); mean PGIC score vs placebo ([4]; Day 28): trended toward significant improvement; PGIC Score, subjects 0 - no change, n (%) ([4]; Day 28, head N = 39): 14 (36%); PGIC Score, subjects 1 - minimally improved, n (%) ([4]; Day 28, head N = 39): 10 (26%); PGIC Score, subjects 2 - much improved, n (%) ([4]; Day 28, head N = 39): 7 (18%); PGIC Score, subjects 3 - very much improved, n (%) ([4]; Day 28, head N = 39): 3 (8%); PGIC Score, subjects −1 - minimally worse, n (%) ([4]; Day 28, head N = 39): 1 (3%); PGIC Score, subjects −2 - much worse, n (%) ([4]; Day 28, head N = 39): 1 (3%); PGIC Score, subjects −3 - very much worse, n (%) ([4]; Day 28, head N = 39): 1 (3%); PGIC score (rescaled −3 to 3), LS mean (SE) ([4]; Day 28): 0.8 (0.19); Emax, change from baseline in TETRAS-PS vs Cmin (Hill equation) [5]: approximately −4.1
